Test results from publication PMC8111447 (Frontiers in Pharmacology, 2021).
Residue numbers refer to the chain shown, from its start.

Tests used:
Assay in all cases: Kinase panel (Eurofins)
Assay type in all cases: biochemical
Details in all cases: n = 2; for inhibition at 1 µM: at 1 μmol/L; for IC50: read-out: IC50 kinase inhibition
[1] = molecular target: T1, ErbB4(h) (Homo sapiens, UniProt Q15303)
T1 construct: purchased Eurofins
Excerpt: (§1) These receptors have a methionine gatekeeper in their kinase domains, and are related to hyperglycemia in other clinical trials of EGFR TKI, such as Co-1686.

[2] = molecular target: T2, PTK5(h) (Homo sapiens, UniProt P42685)
T2 construct: purchased Eurofins
Excerpt: as §1

[3] = molecular target: T3, Flt3 (D835Y) (h) (Homo sapiens, UniProt P36888, D835Y)
T3 construct: purchased Eurofins
T3 sequence (P36888 27-993 D835Y): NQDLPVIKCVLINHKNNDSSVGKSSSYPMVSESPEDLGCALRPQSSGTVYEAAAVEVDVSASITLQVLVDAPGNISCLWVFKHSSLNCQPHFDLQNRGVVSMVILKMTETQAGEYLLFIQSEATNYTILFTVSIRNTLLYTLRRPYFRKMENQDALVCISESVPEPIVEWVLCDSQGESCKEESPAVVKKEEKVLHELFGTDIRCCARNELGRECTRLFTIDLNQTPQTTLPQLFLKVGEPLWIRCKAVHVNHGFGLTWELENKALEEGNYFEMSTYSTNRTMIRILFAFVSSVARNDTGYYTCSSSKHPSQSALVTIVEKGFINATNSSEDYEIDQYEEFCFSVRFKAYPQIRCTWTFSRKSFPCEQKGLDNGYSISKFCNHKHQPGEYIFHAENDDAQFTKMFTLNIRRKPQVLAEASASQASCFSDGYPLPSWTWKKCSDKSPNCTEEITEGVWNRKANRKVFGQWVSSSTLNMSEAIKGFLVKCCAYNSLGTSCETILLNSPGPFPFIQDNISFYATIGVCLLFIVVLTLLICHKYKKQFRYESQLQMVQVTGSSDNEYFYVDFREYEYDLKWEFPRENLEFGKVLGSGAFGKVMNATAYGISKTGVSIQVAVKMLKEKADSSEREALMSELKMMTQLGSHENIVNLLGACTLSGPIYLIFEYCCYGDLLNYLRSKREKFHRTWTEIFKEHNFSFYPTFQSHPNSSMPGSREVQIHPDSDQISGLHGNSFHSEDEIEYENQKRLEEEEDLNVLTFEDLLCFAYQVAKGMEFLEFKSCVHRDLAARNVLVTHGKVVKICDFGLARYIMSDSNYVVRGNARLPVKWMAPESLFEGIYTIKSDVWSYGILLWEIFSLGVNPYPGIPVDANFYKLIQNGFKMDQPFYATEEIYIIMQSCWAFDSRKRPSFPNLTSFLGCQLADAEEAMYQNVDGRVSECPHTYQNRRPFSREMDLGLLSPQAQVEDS
Excerpt: as §1

[4] = molecular target: T4, Pyk2(h) (Homo sapiens, UniProt Q14289)
T4 construct: purchased Eurofins
Excerpt: as §1

[5] = molecular target: T5, Mnk2(h) (Homo sapiens, UniProt Q9HBH9)
T5 construct: purchased Eurofins
T5 sequence (Q9HBH9 whole entry): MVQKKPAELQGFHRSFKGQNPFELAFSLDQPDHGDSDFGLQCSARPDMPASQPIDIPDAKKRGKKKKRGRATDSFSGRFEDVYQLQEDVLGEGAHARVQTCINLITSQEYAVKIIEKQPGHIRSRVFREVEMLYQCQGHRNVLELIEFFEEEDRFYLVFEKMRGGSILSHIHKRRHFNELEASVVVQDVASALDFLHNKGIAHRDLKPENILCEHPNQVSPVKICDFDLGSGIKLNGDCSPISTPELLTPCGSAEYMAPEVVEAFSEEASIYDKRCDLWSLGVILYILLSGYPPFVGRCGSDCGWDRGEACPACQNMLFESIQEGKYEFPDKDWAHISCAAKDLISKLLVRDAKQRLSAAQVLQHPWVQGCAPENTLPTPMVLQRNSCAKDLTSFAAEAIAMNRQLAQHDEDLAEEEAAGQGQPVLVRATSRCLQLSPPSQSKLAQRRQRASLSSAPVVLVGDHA
Excerpt: as §1

[6] = molecular target: T6, LOK(h) (Homo sapiens, UniProt O94804)
T6 construct: purchased Eurofins
Excerpt: as §1

[7] = molecular target: T7, LRRK2(h) (Homo sapiens, UniProt Q5S007)
T7 construct: purchased Eurofins
Excerpt: as §1

[8] = molecular target: T8, Met(h) (Homo sapiens, UniProt P08581)
T8 construct: purchased Eurofins
T8 sequence (P08581 25-1390): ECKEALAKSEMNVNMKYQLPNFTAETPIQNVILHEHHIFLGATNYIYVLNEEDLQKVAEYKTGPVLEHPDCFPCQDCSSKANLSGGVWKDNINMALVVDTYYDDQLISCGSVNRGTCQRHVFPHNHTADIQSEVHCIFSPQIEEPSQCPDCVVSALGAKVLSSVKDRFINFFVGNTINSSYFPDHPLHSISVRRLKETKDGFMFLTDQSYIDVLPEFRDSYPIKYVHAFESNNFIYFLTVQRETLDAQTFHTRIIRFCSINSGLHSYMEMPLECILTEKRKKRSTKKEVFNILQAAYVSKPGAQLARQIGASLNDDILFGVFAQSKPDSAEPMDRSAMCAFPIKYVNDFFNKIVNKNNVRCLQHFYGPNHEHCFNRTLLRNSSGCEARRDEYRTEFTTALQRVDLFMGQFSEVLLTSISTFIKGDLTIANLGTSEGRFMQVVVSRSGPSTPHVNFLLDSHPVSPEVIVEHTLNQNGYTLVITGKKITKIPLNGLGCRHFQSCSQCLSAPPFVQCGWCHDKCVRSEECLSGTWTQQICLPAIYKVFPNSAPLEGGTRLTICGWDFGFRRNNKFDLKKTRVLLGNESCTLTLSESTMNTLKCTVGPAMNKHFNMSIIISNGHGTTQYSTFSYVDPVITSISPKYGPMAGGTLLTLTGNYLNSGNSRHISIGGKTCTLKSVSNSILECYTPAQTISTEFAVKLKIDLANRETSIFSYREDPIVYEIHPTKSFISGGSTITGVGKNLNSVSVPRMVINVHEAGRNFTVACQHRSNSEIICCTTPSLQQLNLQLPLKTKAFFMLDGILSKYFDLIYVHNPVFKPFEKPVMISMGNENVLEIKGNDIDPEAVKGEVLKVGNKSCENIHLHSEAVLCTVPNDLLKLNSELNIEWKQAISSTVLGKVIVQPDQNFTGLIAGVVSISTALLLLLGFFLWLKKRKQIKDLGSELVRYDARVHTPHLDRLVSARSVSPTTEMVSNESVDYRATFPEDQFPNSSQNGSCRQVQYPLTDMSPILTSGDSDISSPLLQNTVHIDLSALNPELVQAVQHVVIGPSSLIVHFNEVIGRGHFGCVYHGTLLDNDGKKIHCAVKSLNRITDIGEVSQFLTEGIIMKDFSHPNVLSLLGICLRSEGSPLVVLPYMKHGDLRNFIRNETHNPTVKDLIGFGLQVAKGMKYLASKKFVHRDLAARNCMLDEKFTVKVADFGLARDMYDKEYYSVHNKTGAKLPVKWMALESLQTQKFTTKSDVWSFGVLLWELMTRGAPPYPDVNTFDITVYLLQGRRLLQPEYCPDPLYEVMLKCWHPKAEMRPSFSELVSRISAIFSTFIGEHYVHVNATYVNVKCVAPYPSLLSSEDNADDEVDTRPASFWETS
Excerpt: as §1

[9] = molecular target: T9, Ros(h) (Homo sapiens, UniProt P08922)
T9 construct: purchased Eurofins
Excerpt: as §1

[10] = molecular target: T10, IGF-1R(h) (Homo sapiens, UniProt P08069)
T10 construct: purchased Eurofins
T10 sequence (P08069 31-1367): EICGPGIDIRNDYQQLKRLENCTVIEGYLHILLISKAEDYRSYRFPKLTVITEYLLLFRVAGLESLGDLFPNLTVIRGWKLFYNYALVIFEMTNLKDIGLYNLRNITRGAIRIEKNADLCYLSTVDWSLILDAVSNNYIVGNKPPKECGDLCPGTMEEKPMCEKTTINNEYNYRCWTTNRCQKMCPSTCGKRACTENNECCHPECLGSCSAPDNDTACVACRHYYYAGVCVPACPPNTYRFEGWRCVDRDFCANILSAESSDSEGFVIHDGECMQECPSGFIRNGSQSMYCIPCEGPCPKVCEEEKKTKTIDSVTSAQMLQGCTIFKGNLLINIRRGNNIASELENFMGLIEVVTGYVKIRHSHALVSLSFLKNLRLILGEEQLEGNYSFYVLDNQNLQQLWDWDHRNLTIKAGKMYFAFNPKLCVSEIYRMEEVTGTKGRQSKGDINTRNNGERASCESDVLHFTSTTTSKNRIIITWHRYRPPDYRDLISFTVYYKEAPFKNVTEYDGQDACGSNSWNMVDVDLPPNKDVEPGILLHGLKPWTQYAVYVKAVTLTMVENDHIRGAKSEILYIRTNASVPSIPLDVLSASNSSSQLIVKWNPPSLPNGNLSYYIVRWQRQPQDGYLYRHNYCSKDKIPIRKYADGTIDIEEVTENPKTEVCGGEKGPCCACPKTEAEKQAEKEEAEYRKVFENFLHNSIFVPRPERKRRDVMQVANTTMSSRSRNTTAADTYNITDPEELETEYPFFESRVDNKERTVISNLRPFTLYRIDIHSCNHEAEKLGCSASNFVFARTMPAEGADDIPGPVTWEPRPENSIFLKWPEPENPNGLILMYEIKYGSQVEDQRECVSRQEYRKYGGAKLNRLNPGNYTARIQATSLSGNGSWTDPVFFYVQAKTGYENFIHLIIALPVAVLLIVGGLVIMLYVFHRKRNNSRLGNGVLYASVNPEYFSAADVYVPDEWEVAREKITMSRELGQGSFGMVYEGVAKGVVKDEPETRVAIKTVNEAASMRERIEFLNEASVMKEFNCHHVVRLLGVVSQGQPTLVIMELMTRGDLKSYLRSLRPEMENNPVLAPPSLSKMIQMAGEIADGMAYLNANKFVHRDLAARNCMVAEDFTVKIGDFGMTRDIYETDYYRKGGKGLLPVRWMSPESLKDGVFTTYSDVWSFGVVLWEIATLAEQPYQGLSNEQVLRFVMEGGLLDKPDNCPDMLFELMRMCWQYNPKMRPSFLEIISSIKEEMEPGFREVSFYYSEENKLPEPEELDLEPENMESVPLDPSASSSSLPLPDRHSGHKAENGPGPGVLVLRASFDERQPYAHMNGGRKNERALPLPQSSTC
Excerpt: as §1

[11] = molecular target: T11, Fer(h) (Homo sapiens, UniProt P16591)
T11 construct: purchased Eurofins
T11 sequence (P16591 whole entry): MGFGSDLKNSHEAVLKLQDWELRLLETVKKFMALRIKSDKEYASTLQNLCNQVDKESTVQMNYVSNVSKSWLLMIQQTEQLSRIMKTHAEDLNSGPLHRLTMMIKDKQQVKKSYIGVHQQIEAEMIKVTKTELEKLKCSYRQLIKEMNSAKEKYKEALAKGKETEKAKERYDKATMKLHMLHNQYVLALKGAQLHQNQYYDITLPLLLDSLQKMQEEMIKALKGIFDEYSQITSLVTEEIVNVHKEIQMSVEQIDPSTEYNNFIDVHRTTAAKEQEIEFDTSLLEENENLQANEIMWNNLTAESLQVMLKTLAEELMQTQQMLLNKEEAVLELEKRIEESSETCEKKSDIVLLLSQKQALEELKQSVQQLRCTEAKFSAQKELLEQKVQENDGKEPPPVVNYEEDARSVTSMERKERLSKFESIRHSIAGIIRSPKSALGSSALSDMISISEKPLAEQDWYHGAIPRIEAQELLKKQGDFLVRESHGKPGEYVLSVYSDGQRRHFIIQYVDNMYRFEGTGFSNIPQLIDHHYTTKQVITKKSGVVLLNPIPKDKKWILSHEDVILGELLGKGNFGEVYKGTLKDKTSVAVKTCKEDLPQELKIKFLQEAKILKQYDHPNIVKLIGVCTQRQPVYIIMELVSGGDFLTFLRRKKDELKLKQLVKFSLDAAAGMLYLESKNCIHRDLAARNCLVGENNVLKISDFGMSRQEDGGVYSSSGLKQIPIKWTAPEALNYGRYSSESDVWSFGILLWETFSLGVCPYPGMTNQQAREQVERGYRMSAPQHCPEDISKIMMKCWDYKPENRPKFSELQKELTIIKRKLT
Excerpt: as §1

[12] = molecular target: T12, Flt3(h) (Homo sapiens, UniProt P36888)
T12 construct: purchased Eurofins
T12 sequence (P36888 27-993): T3 sequence (P36888 27-993 D835Y) with Y809D
Excerpt: as §1

[13] = molecular target: T13, FAK(h) (Homo sapiens, UniProt Q05397)
T13 construct: purchased Eurofins
T13 sequence (Q05397 whole entry): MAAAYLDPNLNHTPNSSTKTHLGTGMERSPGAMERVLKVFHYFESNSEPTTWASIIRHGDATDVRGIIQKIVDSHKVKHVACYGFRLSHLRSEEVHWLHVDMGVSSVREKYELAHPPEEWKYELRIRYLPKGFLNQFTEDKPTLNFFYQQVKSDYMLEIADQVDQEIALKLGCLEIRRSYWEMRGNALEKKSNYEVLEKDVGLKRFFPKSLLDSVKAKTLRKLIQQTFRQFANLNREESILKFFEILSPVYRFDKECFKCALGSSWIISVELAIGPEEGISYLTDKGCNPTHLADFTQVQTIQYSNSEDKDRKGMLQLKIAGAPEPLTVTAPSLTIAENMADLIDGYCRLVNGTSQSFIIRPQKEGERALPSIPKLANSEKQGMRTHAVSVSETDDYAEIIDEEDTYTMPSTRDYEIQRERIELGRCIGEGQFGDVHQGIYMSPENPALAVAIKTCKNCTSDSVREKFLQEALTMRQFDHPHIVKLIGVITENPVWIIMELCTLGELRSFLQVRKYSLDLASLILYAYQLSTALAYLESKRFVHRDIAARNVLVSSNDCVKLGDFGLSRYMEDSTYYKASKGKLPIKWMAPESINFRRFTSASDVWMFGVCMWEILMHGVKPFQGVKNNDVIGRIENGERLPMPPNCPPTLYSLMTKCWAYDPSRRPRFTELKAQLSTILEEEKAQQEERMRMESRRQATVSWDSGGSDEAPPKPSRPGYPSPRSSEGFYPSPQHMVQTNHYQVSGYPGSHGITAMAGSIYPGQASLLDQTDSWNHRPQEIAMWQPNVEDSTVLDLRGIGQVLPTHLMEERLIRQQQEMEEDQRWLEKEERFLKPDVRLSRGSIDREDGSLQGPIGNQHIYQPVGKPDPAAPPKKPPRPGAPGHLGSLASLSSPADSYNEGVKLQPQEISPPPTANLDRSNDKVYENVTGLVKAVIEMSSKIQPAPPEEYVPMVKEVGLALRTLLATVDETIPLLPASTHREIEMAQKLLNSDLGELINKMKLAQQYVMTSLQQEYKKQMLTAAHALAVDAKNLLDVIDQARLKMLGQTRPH
Excerpt: as §1

[14] = molecular target: T14, Blk(h) (Homo sapiens, UniProt P51451)
T14 construct: purchased Eurofins
Excerpt: as §1

inhibition at 1 µM [1]	IC50 [1]	inhibition at 1 µM [2]	IC50 [2]	inhibition at 1 µM [3]	IC50 [3]	inhibition at 1 µM [4]	IC50 [4]	inhibition at 1 µM [5]	IC50 [5]	inhibition at 1 µM [6]	IC50 [6]	inhibition at 1 µM [7]	IC50 [7]	inhibition at 1 µM [8]	IC50 [8]	inhibition at 1 µM [9]	IC50 [9]	inhibition at 1 µM [10]	IC50 [10]	Structure (SMILES)	further results
92%	84 nM	64%	736 nM	99%	41 nM	83%	227 nM	69%	22 nM	72%	593 nM	93%	120 nM	73%	486 nM	98%	47 nM	70%	812 nM	C=CC(=O)Nc1cc(Nc2nccc(-c3c4n(c5ccccc35)CCCC4)n2)c(OC)cc1N(C)CCNC [Imp3]	inhibition at 1 µM [11]: 80%; IC50 [11]: 452 nM; inhibition at 1 µM [12]: 97%; IC50 [12]: 45 nM; inhibition at 1 µM [13]: 87%; IC50 [13]: 267 nM; inhibition at 1 µM [14]: 85%; IC50 [14]: 229 nM
90%	46 nM	39%	644 nM	86%	78 nM	73%	228 nM	63%	23 nM	24%	1950 nM	89%	82 nM	46%	737 nM	96%	50 nM	38%	574 nM	C=CC(=O)Nc1cc(Nc2nccc(-c3c4n(c5ccccc35)CCCC4)n2)c(OC)cc1N(C)CCN(C)C [SH-1028]	inhibition at 1 µM [11]: 45%; IC50 [11]: 542 nM; inhibition at 1 µM [12]: 88%; IC50 [12]: 71 nM; inhibition at 1 µM [13]: 68%; IC50 [13]: 235 nM; inhibition at 1 µM [14]: 83%; IC50 [14]: 143 nM
